Data: patent publication US11434242B2, “Dopamine-b-hydroxylase inhibitors” (BIAL-PORTELA & Cª, S.A., priority 2017, dated 2022)
Structures can show the parent of a compound that is named as a salt.

Tests used:
[1] = molecular target: T1, Dopamine beta hydroxylase (Homo sapiens, UniProt P09172); assay: Dopamine beta hydroxylase activity in human plasma; format: biochemical; conditions: for Plasma (0.01 μM), activity in % of control: inhibitor 0.01 μM; for Plasma (0.1 μM), activity in % of control: inhibitor 0.1 μM
T1 construct: 125 μl of plasma; tissue Instituto Português do Sangue Transplantação; host or cells: human plasma from healthy donors
T1 sequence (P09172 40-617 limits assumed): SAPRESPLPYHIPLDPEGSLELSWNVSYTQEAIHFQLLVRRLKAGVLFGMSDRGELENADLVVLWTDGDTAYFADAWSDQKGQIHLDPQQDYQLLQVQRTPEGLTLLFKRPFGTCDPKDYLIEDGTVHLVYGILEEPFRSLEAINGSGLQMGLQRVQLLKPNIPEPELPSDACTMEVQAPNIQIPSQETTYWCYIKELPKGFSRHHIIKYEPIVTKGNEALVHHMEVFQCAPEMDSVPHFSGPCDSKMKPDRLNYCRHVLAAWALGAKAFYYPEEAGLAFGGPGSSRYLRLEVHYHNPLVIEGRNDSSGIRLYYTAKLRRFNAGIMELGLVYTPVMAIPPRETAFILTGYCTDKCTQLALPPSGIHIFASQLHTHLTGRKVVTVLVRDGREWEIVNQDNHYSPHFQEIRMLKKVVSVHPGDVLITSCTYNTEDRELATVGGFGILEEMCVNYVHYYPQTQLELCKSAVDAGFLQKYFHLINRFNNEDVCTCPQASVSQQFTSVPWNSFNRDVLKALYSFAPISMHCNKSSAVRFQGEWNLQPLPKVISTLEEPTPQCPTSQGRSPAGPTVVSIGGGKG
Summary of the method: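 Octopamine production from tyramine over 45 min at 37° C, measured photometrically at 330 nm after SCX extraction and periodate oxidation against an octopamine standard curve, indicates plasma DβH activity. Compounds tested at final 10, 100 and 1000 nM in human plasma, pH 5.0 cofactor buffer, 10 min preincubation; results as % of control.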

[2] = test system: noradrenaline (NA) in brain stem; assay: Catecholamine determination: noradrenaline in brain stem after oral administration; format: in vivo, Wistar rats; conditions: 10 mg/kg oral; for NA in Br.s (% Control): rat brain stem noradrenaline, 15 h post-dose, mean±SD of 4 rats; for effect on levels of NA in CNS tissues such as brain stem: rat
Procedure: Catecholamines quantification in brain stem was performed as previously described (Bonifacio, M. J.; Sousa, F.; Neves, M.; Palma, N.; Igreja, B.; Pires, N. M.; Wright, L. C.; Soares-da-Silva, P. “Characterization of the interaction of the novel anthyhypertensive etamicastat with human dopamine-beta-hydroxylase: comparison with nepicastat.” Eur. J. Pharmacol. 751, 50-58, 2015) with minor modifications. Test compounds were prepared in 40% of kleptose at a concentration of 2.5 mg/ml to be administered at a dose of 10 mg/kg. Compounds and vehicle (kleptose 40%) were administered to Wistar rats and tissues (brain stem or heart left ventricle) collected in perchloric acid (0.2M) at defined time points after administration. Tissues were stored overnight at 4° C. and the solution was then filtered by centrifugation (1500 g, 4 min, 4° C.) through 0.22 μm pore size filters (Costar Spin-x from Corning Inc., USA). Catecholamines were quantified in filtrates by directly injecting 50 μl of sample volume on a HPLC system with electrochemical detection, using a Spheri-5RP-185 mm column (Perkin-Elmer). Mobile phase consisted of a solution containing 0.1M citric acid, 0.1M sodium acetate, 0.15 mM EDTA, 1 mM dibutylamine, 1 mM octylsulfate, and 5% methanol adjusted to pH 3.5 with perchloric acid.

Plasma (0.01 μM), activity in % of control [1] | Plasma (0.1 μM), activity in % of control [1] | Plasma (1 μM), activity in % of control ([1]; inhibitor 1 μM) | Compound | NA in Br.s (% Control) [2] [% Control] | effect on levels of NA in CNS tissues such as brain stem [2]
29.9 % of control | 4.8 % of control |  | CN(C(=O)Cc1c2n(c(=S)n1C)C[C@@]1(c3c(F)ccc(Cl)c3F)C[C@@H]21)C1COC1 [Example 403, 2-((5aS,6aR)-5a-(3-chloro-2,6-difluorophenyl)-2-methyl-3-thioxo-2,3,5,5a,6,6a-hexahydrocyclopropa[3,4]pyrrolo[1,2-c]imidazol-1-yl)-N-methyl-N-(oxetan-3-yl)acetamide] | 87 ± 16 | failed to reduce levels of NA
 | 52.7 % of control | 8.5 % of control | Cl.Fc1ccc(Cl)cc1[C@]12C[C@H]1c1c(CCN3CCOCC3)[nH]c(=S)n1C2 [Example 174, (5aS,6aR)-5a-(5-chloro-2-fluorophenyl)-1-(2-morpholinoethyl)-5,5a,6,6a-tetrahydrocyclopropa[3,4]pyrrolo[1,2-c]imidazole-3(2H)-thione hydrochloride] | 84 ± 8 | failed to reduce levels of NA
69.9 % of control | 19.7 % of control |  | Fc1cc(F)c(F)c([C@H]2Cc3c(CCCN4CCCC4)[nH]c(=S)n3C2)c1F [Example 219, (R)-1-(3-(pyrrolidin-1-yl)propyl)-6-(2,3,5,6-tetrafluorophenyl)-2,5,6,7-tetrahydro-3H-pyrrolo[1,2-c]imidazole-3-thione hydrochloride] | 92 ± 23 | failed to reduce levels of NA
61.7 % of control | 29.2 % of control |  | Cl.Cn1c(CCN[C@@H]2CCOC2)c2n(c1=S)C[C@H](c1c(F)ccc(Br)c1F)C2 [Example 256, (S)-6-(3-bromo-2,6-difluorophenyl)-2-methyl-1-(2-(((R)-tetrahydrofuran-3-yl)amino)ethyl)-2,5,6,7-tetrahydro-3H-pyrrolo[1,2-c]imidazole-3-thione hydrochloride] | 128 ± 64 | failed to reduce levels of NA

Further lines, the molecule ahead of its results:

Compound | Plasma (0.01 μM), activity in % of control [1] | Plasma (0.1 μM), activity in % of control [1] | Plasma (1 μM), activity in % of control ([1]; inhibitor 1 μM) | NA in Br.s (% Control) [2] [% Control] | effect on levels of NA in CNS tissues such as brain stem [2]
Cn1c(CC(=O)O)c2n(c1=S)C[C@@]1(c3c(F)ccc(Cl)c3F)C[C@@H]21 [Example 231, 2-((5aS,6aR)-5a-(3-chloro-2,6-difluorophenyl)-2-methyl-3-thioxo-2,3,5,5a,6,6a-hexahydrocyclopropa[3,4]pyrrolo[1,2-c]imidazol-1-yl)acetic Acid] | 35.9 % of control | 5.6 % of control |  | 99 ± 14 | failed to reduce levels of NA
F.Fc1ccc(Br)cc1[C@]12C[C@H]1c1c(CCN3CCOCC3)[nH]c(=S)n1C2 [Example 191, (5aS,6aR)-5a-(5-bromo-2-fluorophenyl)-1-(2-morpholinoethyl)-5,5a,6,6a-tetrahydrocyclopropa[3,4]pyrrolo[1,2-c]imidazole-3(2H)-thione hydrofluoride] | 82.3 % of control | 26.0 % of control |  | 83 ± 10 | failed to reduce levels of NA
Fc1ccc(Br)c(F)c1[C@@H]1Cc2c(CCN3CCOCC3)[nH]c(=S)n2C1 [Example 195, (S)-6-(3-bromo-2,6-difluorophenyl)-1-(2-morpholinoethyl)-2,5,6,7-tetrahydro-3H-pyrrolo[1,2-c]imidazole-3-thione] | 77.3 % of control | 41.7 % of control |  | 123 ± 55 | failed to reduce levels of NA
